In patent publication US11834433B2, “Compounds” (INFLAZOME LIMITED, priority 2018, dated 2023):
Where a name gives a salt, the structure may show the parent alone.

System: NLRP3
Experiment: THP-1 cells pyroptosis assay (LPS + nigericin, resazurin read-out)
Format: cell-based
Details: Homo sapiens, 1 μg/ml LPS, 5 μM nigericin, NLRP3 inhibitory activity
Procedure: THP-1 cells (ATCC #TIB-202) were grown in RPMI containing L-glutamine (Gibco #11835) supplemented with 1 mM sodium pyruvate (Sigma #S8636) and penicillin (100 units/ml)/streptomycin (0.1 mg/ml) (Sigma #P4333) in 10% Fetal Bovine Serum (FBS) (Sigma #F0804). The cells were routinely passaged and grown to confluency (˜10^6 cells/ml). On the day of the experiment, THP-1 cells were harvested and resuspended into RPMI medium (without FBS). The cells were then counted and viability (>90%) checked by Trypan blue (Sigma #T8154). Appropriate dilutions were made to give a concentration of 625,000 cells/ml. To this diluted cell solution was added LPS (Sigma #L4524) to give a 1 μg/ml Final Assay Concentration (FAC). 40 μl of the final preparation was aliquoted into each well of a 96-well plate. The plate thus prepared was used for compound screening. The following method step-by-step assay was followed for compound screening. • 1. Seed THP-1 cells (25,000 cells/well) containing 1.0 μg/ml LPS in 40 μl of RPMI medium (without FBS) in 96-well, black walled, clear bottom cell culture plates coated with poly-D-lysine (VWR #734-0317) • 2. Add 5 μl compound (8 points half-log dilution, with 10 μM top dose) or vehicle (DMSO 0.1% FAC) to the appropriate wells • 3. Incubate for 3 hrs at 37° C., 5% CO2 • 4. Add 5 μl nigericin (Sigma #N7143) (FAC 5 μM) to all wells • 5. Incubate for 1 hr at 37° C., 5% CO2 • 6. At the end of the incubation period, spin plates at 300×g for 3 mins and remove supernatant • 7. Then add 50 μl of resazurin (Sigma #R7017) (FAC 100 μM resazurin in RPMI medium without FBS) and incubate plates for a further 1-2 hrs at 37° C. and 5% CO2 • 8. Plates were read in an Envision reader at Ex 560 nm and Em 590 nm • 9. IC50 data is fitted to a non-linear regression equation (log inhibitor vs response-variable slope 4-parameters) [table]

SMILES | IC50 [µM]
COC1(c2cc(S(=O)(=O)NC(=O)Cc3c4c(cc5c3CCC5)CCC4)nn2C(C)C)COC1 [Example 1, 2-(1,2,3,5,6,7-Hexahydro-s-indacen-4-yl)-N-((1-isopropyl-5-(3-methoxyoxetan-3-yl)-1H-pyrazol-3-yl)sulfonyl)acetamide] | ≤ 5
COC1(c2cc(S(=O)(=O)NC(=O)Cc3c(-c4ccnc(C#N)c4)ccc4c3CCC4)nn2C(C)C)COC1 [Example 2, 2-(5-(2-Cyanopyridin-4-yl)-2,3-dihydro-1H-inden-4-yl)-N-((1-isopropyl-5-(3-methoxyoxetan-3-yl)-1H-pyrazol-3-yl)sulfonyl)acetamide, potassium Salt] | ≤ 10
COC1(c2cc(S(=O)(=O)NC(=O)Cc3c4c(cc5c3CCC5)CCC4)nn2C2CC2)COC1 [Example 3, N-((1-Cyclopropyl-5-(3-methoxyoxetan-3-yl)-1H-pyrazol-3-yl)sulfonyl)-2-(1,2,3,5,6,7-hexahydro-s-indacen-4-yl)acetamide] | ≤ 5
COC(C)(C)Cn1ccc(S(=O)(=O)NC(=O)Cc2c3c(cc4c2CCC4)CCC3)n1 [Example 4, 2-(1,2,3,5,6,7-Hexahydro-s-indacen-4-yl)-N-((1-(2-methoxy-2-methylpropyl)-1H-pyrazol-3-yl)sulfonyl)acetamide] | ≤ 5
COC1(c2cc(S(=O)(=O)NC(=O)Cc3c(C(C)C)cc(F)cc3C(C)C)nn2C(C)C)COC1 [Example 5, 2-(4-Fluoro-2,6-diisopropylphenyl)-N-((1-isopropyl-5-(3-methoxyoxetan-3-yl)-1H-pyrazol-3-yl)sulfonyl)acetamide] | ≤ 5
CC(C)c1cc(F)cc(C(C)C)c1CC(=O)NS(=O)(=O)c1ccn(C[C@@H](C)O)n1 [Example 6, (R)-2-(4-Fluoro-2,6-diisopropylphenyl)-N-((1-(2-hydroxypropyl)-1H-pyrazol-3-yl)sulfonyl)acetamide] | ≤ 5
COc1cc(-c2cc(F)cc(C(C)C)c2CC(=O)NS(=O)(=O)c2cnn(CC(C)(C)O)c2)ccn1 [Example 7] | ≤ 5
COCC(C)(C)n1ccc(S(=O)(=O)NC(=O)Cc2c(-c3ccnc(OC)c3)cc(F)cc2C(C)C)n1 [Example 8] | ≤ 5
COc1cc(-c2cc(F)cc(C(C)C)c2CC(=O)NS(=O)(=O)c2ccn(C(C)(C)CO)n2)ccn1 [Example 9] | ≤ 5
